Measured values from patent publication US20090124599A1, “Fungicidal Mixtures” (Basf Aktiengesellschaft, priority 2004, published 2009).

How the values were obtained:
[1] = test system: Botrytis cinerea; experiment: Activity against the gray mold pathogen Botrytis cinerea in the microtiter test; type: cell-based; details: single active, day 7 after inoculation, absorption 405 nm
[2] = test system: Phytophthora infestans; type: in vivo, Phytophthora infestans on tomato plants; details: 16 ppm; single active; sprayed 5 days before infection, assessed after 6 days; control 90% infection

Structure (SMILES)	Observed efficacy (%) ([1]; 0.063 ppm)	Observed efficacy (%) ([1]; 0.125 ppm)	Observed efficacy (%) ([1]; 0.25 ppm)	Observed efficacy (%) [2] [%]
CO/C=C(/C(=O)OC)c1ccccc1CO/N=C(C)/C=C/c1ccc(Cl)cc1 [enestroburin (I), methyl 2-{2-[3-(4-chlorophenyl)-1-methylallylideneaminooxymethyl]phenyl}-3-methoxyacrylate]	0	0	0	–
O=[N+]([O-])c1cc(C(F)(F)F)c(Cl)c([N+](=O)[O-])c1Nc1ncc(C(F)(F)F)cc1Cl [fluazinam (II-1), 3-chloro-N-[3-chloro-2,6-dinitro-4-(trifluoromethyl)phenyl]-5-(trifluoromethyl)-2-pyridineamine]	35	–	–	22
Cc1cc(C)nc(Nc2ccccc2)n1 [pyrimethanil (II-9)]	–	70	–	–
